Structures can show the parent of a compound that is named as a salt.
System: esterase from porcine liver
Assay: in vitro enzymatic degradation by esterase
Format: in vitro ADME
Settings: 200 mg monomer, 50 units esterase, 24 hours, 37° C., 1H NMR
Description: The enzymatic degradation of these new monomers were compared to those of the oligomerized fatty acids. The monomers RAM, HSAM, HSAS, FAD, and FAT (200 mg) were mixed in a solution containing esterase (2 ml, containing 50 units of esterase from porcine liver, Sigma Chemical Company, St. Louis, Missouri) and were incubated for 24 hours at 37° C. The monomers or their degradation products were extracted with chloroform and analyzed by ^1 H NMR. […] The RAM, and HSAS monomers contained about 10% ricinoleic acid or 12-hydroxy stearic acid, respectively.

In the case of `CCCCCCC(CCCCCCCCCCC(=O)O)OC(=O)CCC(=O)O` (centres unmarked) [HSAS, 12-hydroxy stearic acid succinate], the “ricinoleic acid or 12-hydroxy stearic acid formed” value is reported as “about 10%”.
For `CCCCCC[C@H](C/C=C\CCCCCCCC(=O)O)OC(=O)/C=C\C(=O)O` [RAM, ricinoleic acid maleate], the “ricinoleic acid or 12-hydroxy stearic acid formed” value was “about 10%”.
